Data on five molecules can be found in patent US11573234B2, “Predicting responders to cyclophosphamide therapy” (Royal Melbourne Institute of Technology, priority 2017, dated 2023).

Assay [1] relates to CCR4 expression on T cells. The protocol: (§1) Ten (10) human patients with gynaecological cancers with ages ranging from 62-82 years were recruited in a bicentric phase II trial. […] Disease progression was determined using RECIST and GCIG CA125 criteria (Rustin G J et al., (2011) Official journal of the International Gynaecological Cancer Society February; 21(2):419-23). From the time of recruitment, written consent was obtained from patients and pre-treatment blood samples were collected. Patients received oral doses of 50 mg cyclophosphamide twice daily (morning and evening), for 3 consecutive days and blood was collected 2 weeks later in EDTA coated tubes for whole blood and serum separation tubes for sera (BD Vacutainer, BD, USA). The treatment cycle and blood sampling were repeated at fortnightly intervals for up to 8 cycles. For healthy samples, buffy coats were obtained from routine blood donations, acquired at the Australian Red Cross Blood Service.
Peripheral blood mononuclear cells (PBMCs) were isolated within 24 hours of blood collection via Ficoll (Amersham Pharmacia Biotech, Sweden) density gradient centrifugation. Cells were then washed in Dulbecco's Phosphate Buffered Saline (dPBS, Sigma-Aldrich, USA). The isolated PBMCs were frozen down in a freeze medium containing 10% DMSO (Sigma-Aldrich, USA) and 90% heat-inactivated fetal calf serum (GIBCO, Life Technologies, USA) or 90% human AB serum (Sera Laboratories International, UK) at a speed of 1° C./min at −80° C. and subsequently stored in liquid nitrogen. Upon thawing, each vial of frozen PBMCs was quickly defrosted in a 37° C. water-bath and re-suspended in AIM-V media (Life Technologies, USA) with 5% normal human serum (HS, Sigma-Aldrich, USA) (complete AIM-V media).
Cells were then washed twice with stain buffer. […] Data were analysed using Flowjo software (TreeStar, USA).
To investigate the effect of cyclophosphamide on CCR4 expression within T cells, the frequency of CCR4^+ cells pre-treatment (n=mean of 7-8 time points) was compared to the frequencies following each cycle of treatment (n=mean of 3-6 time points) for each individual patient.

The test system of assay [2] is CD107a on CD4+ and CD8+ T cells. The note with it: 3 increased % CCR4 patients; PMA and ionomycin 6 hours.
Description: The cytotoxic capacity of T cells was determined by culturing PBMCs with complete AIM-V media at 10^6 cells/500 μl/well in a 48 well plate. […] Brefeldin A (eBioscience, USA) was added at 3 μg/ml for the last 4 hours of incubation. After incubation, cells were washed and labelled for surface markers as described above. Cells were analysed using flow cytometry, unstimulated cells, fluorescence minus one (FMO) and isotype matched antibodies were also used as controls. Data were collected and analysed as above.
The frequencies of CD107a+ cells within CD4+ and CD8+ T cells were determined using samples from 3 of the 4 increased % CCR4 patients at one of the time points when CCR4+ T cell frequencies was increased.
Assay [3] has as its system recurrent uterine and ovarian cancers. The note with it: cited from earlier work; for response rates: second line, recurrent disease, cisplatin uterine, carboplatin ovarian cancers.
Assay [4] has as its system ID8 tumour bearing animals. The note with it: mouse, in vivo. The protocol:
To address the effects of LDCy on immunity in tumour bearing animals, ID8 implanted animals (n=5/group) were treated at post challenge (at the onset of detectable tumour growth in vivo) with one cycle of LDCy and assessed changes in T cell subsets ex-vivo at days 1, 7 and 14 post in vivo treatment by flow cytometry.

The test system of assay [5] is advanced treatment-refractory gynaecological tumours. The method, then: as §1
Assay [6] has as its system CCR4 expression on T cells in PBMCs. Put plainly: In vitro drug experiment: CCR4 expression on T cells in PBMCs. As to conditions: 30 ng/ml, 72 hours.
Assay [7] concerns acetylation of H3K9, H3K14 and H3K18. Put plainly: Histone 3 acetylation detection by flow cytometry. It is filed as cell-based, human. As to conditions: 72 hours. The protocol: The acetylation of histone 3 at lysine (H3K)9, H3K14 and H3K18 was assessed using flow cytometry. […] In the last 4 hours of culture, 50 nM panobinostat (LBH589, a pan histone deacetylase (HDAC) inhibitor) was added to the IL-2 cultures. Cells were harvested and prepared for flow cytometry analysis as described above. Following surface labelling, fixation and permeabilisation, cells were labelled with unconjugated anti-H3K9, anti-H3K14 and anti-H3K18 (Cell Signalling Technology, USA). Secondary labelling was performed using an Alexa Fluor 488 conjugated donkey anti-rabbit Ig antibody (Biolegend, USA). Data were collected and analysed as above.
For orientation: A flow cytometer gives signals particle by particle.

The mark [8] stands for this setting: increased % CCR4 patients at time points of CCR4 increase, p<0.05.

Read-outs that look alike come from different tables or passages of the source. Where only a bound is given, the exact number is not on record here.

In the case of `O=P1(N(CCCl)CCCl)NCCCO1` (centres unmarked) [cyclophosphamide], in assay [1] (first 3 cycles of treatment, p<0.01), the “mean ratio of CCR4+ Tconvs to CCR4+ Tregs, increased % CCR4 vs constant % CCR4 patients” value is given as “over 2 fold”. Also, the “mean ratio of CCR4+ CD8+ T cells to CCR4+ Tregs, increased % CCR4 vs constant % CCR4 patients” value in assay [1] (first 3 cycles of treatment, p<0.05) is recorded as “over 3 fold”. For the same molecule, the “frequency of CCR4+ cells within Tregs compared to pre-treatment” value in assay [1] (increased % CCR4 patients at time points of CCR4 increase) is on record as “not significantly increased”. Besides, in assay [1] (setting [8]), the “fold increase in the frequency of CCR4+ cells within CD8+ T cells compared to pre-treatment” value was determined as 5 fold and the “fold increase in the frequency of CCR4+ cells within Tconvs compared to pre-treatment” value was 5 fold. In assay [1] (increased % CCR4 patients, all 3 populations), the “CCR4 mean fluorescence intensity (MFI) within Tregs, Tconvs and CD8+ T cells relative to pre-treatment” value is listed as “remained unchanged”. Besides, in assay [1] (of the 10 patients, following at least one cycle, within the first 3 cycles), the “patients with significant increases in the frequency of CCR4+ cells within CD3+ T cells” value amounted to 4. In addition, the “mean frequency of CD107a+ cells in CD4+ and CD8+ populations vs pre-treatment” value in assay [2] was “increased compared to pre-treatment samples, however neither increase was significant”. Further, the “clinical benefit (share of patients)” value in assay [3] (low dose, women with recurrent ovarian cancer) is on record as 25-44%. Also, in assay [4], the “CCR4+ CD4 T cell effectors in peripheral blood” value is recorded as “a trend towards CCR4^+ CD4 T cell effector increases”, the “CCR4+ Treg in peripheral blood” value is listed as “no increases”, the “CCR4+CD8+ T cells in peripheral blood” value is “clear increases” and the “CD69+ CD4 T cell effectors in TILS” value is reported as “a trend towards CD69^+ CD4 T cell effector increases”. In addition, in assay [4], the “CD69+ Treg in TILS” value is given as “no CD69^+Treg increases” and the “CD69+CD8+ T cells in tumour infiltrating lymphocytes (TILS)” value is “clearly increased”. Also, the mean overall survival in assay [5] (CCR4 spike patients (n=4)) came out at 476 ± 80 days. In assay [5] (CCR4 steady patients (n=6)), this molecule showed a mean overall survival of 163 ± 37 days. Also, the “patients who achieved stable disease” value in assay [5] (of the 4 CCR4 spike patients) is given as 3. Further, in assay [5] (of the 6 CCR4 steady patients), the “patients who achieved stable disease” value is recorded as “None”. In assay [5] (patients with CCR4 up-regulation in vivo and in the in vitro CUP pre-test), the increase in survival is recorded as greater than 300 days. In assay [5] (spike vs steady patients), the “survival of CCR4 spike patients relative to CCR4 steady patients” value was “approximately 3 times”.
On to `CC(=O)O[C@H]1C(=O)[C@@]2(C)[C@H]([C@H](OC(=O)c3ccccc3)[C@]3(O)C[C@H](OC(=O)[C@H](O)[C@@H](NC(=O)c4ccccc4)c4ccccc4)C(C)=C1C3(C)C)[C@]1(OC(C)=O)CO[C@@H]1C[C@@H]2O` [paclitaxel], for which the “frequency of CCR4+ T cells in healthy PBMCs” value in assay [6] is “does not Significantly Increase”.
Regarding `N.N.[Cl][Pt][Cl]` [cisplatin], in assay [3], the response rates entry is “around 20%”.
Regarding `N.N.O=C([O-])C1(C(=O)[O-])CCC1.[Pt+2]` [carboplatin], the response rates result in assay [3] is reported as “around 20%”.

B1: IL-4: IL-4 (R&D systems, USA), cytokine used at 10 ng/ml (protein, UniProt P05112 25-153, looked up)
Interleukin-4: HKCDITLQEIIKTLNSLTEQKTLCTELTVTDIFAASKNTTEKETFCRAATVLRQFYSHHEKDTRCLGATAQQFHRHKQLIRFLKRLDRNLWGLAGLNSCPVKEANQSTLENFLERLKTIMREKYSKCSS
Regarding B1, the “acetylation of H3K9 in CD8+ T cells” value in assay [7] (IL-4 10 ng/ml, p<0.05) is recorded as “slight but significant decrease”. Moreover, the “acetylation of H3K14” value in assay [7] (mafosfamide […] or IL-4 10 ng/ml) was “Neither mafosfamide nor IL-4 treatment resulted in a change”.
